Data on 5 compounds can be found in patent US11834424B2, “Compounds useful as chaperone-mediated autophagy modulators” (ALBERT EINSTEIN COLLEGE OF MEDICINE, priority 2018, dated 2023).

Structures are written as SMILES.

The subject of series [1] is chaperone-mediated autophagy (CMA) in NIH 3T3 fibroblasts. In words: Photoswitchable KFERQ-Dendra CMA reporter assay in NIH 3T3 fibroblasts. Type of series: cell-based. As to the method:
The photoactivatable CMA reporter assay was constructed by inserting a sequence of 21 amino acid of Ribonuclease A bearing the CMA-targeting motif in the N-terminus multicloning site of the photoactivatable protein mCherryl or the photoswitchable protein Dendra 2.
NIH 3T3 fibroblasts were stably transduced with a photoconvertible CMA reporter, KFERQ-Dendra. were photoswitched by exposure to a […] (constant current) LED (Norlux, 405 nm) for 10 minutes and at the desired times fixed in 3% formaldehyde. Test cells were exposed to the indicated concentrations of the compounds for 12 hours (FIG. 3A) or 24 hours (FIG. 3B). Cells were imaged using high content microscopy (Operetta, Perkin Elmer) or by capturing images with an Axiovert 200 fluorescence microscope (Zeiss) with apotome and equipped with a 63/1.4 NA oil objective lens and red (ex. 570/30 nm, em. 615/30 nm), cyan (ex. 365/50 nm and em. 530/45 nm) and green (ex. 475/40 nm and em. 535/45 nm) filter sets (Chroma). Images were acquired with a high-resolution CCD camera after optical sectioning through the apotome. CMA activity measured as the average number of fluorescent puncta (CMA active lysosomes) per cell. Values are expressed relative to values in untreated cells that were assigned an arbitrary value of 1 and are mean of >2,500 cells counted per condition. The S.D. in all instances was <0.01% mean value. Table 2 provides a comparison of compounds CA39.1 and its comparative example CA39 and CA77.01 and its comparative example CA77.
Background: Reporter assays use an easily measured gene product as a stand-in for the process of interest.

A further series can be described thus: in vitro. Particulars: for CLint(mic) / Remaining (T = 60 min): 3 μM; for Remaining (T = 60 min): 1 h; for CLint scaled at 3 μM: CLint(liver). As to the method: Microsome stability was determined in human, rat, and mouse, liver microsomes. Compound at 3 μM final concentration along with 0.5 mg/mL microsome protein and 1 mM NADPH was incubated for 0, 5, 15, 30 and 60 min. As a negative control, test compound was incubated with microsomes in the absence of NADPH. Samples were quenched with methanol and centrifuged for 25 min at 2500 rpm to precipitate proteins. Supernatants were analyzed (N=3) by LC-MS/MS. The In peak area ratio (compound peak area/internal standard peak area) was plotted against time and the gradient of the line determined the elimination rate constant [k=(−1)(slope)].
R^2 is the correlation coefficient of the linear regression for the determination of kinetic constant. T1/2 is the half life and CLint (mic) is the intrinsic clearance. CLint(liver)=CLint (mic)*mg microsomal protein/g liver weight*g liver weight/kg body weight. Liver weight/kg body weight is 20 g/kg for human.

A short description of series [2]: Pharmacokinetics (plasma and brain levels) in ICR (CD-1) mice. Particulars: ICR (CD-1) mice. Type of series: in vivo. The procedure:
ICR (CD-1) male mice were fasted at least three horns and water was available ad libitum before the study. Animals were housed in a controlled environment, target conditions: temperature 18 to 29° C., relative humidity 30 to 70%. Temperature and relative humidity was monitored daily. An electronic time controlled lighting system was used to provide a 12 h light/12 h dark cycle. 3 mice for each indicated time point. ICR (CD-1) mice were administered CA77 at 1 mg/kg i.v. and 30 mg/kg p.o. or CA77.1 at 1 mg/kg i.v. (FIG. 2A) and 10 mg/kg p.o. (FIG. 2B). Three (3) mice were included in each dosage and time group. Mice were sacrificed and plasma and brains were obtained at 0.083, 0.25, 0.50, 1.0, 2.0, 4.0, 8.0, and 24.0 hours after administration and drug concentration determined using LC-MS/MS. Brains were removed, homogenized with a tissue homogenizer in cold 5% w/v BSA in phosphate buffer saline (PBS). A 100 microliter aliquots of brain samples were dispensed in to glass culture tubes and mixed with ethyl acetate (800 μl), vortexed, and centrifuged. The organic layer was transferred to a fresh culture tube, dried under nitrogen, and reconstituted in mobile phase for quantitation. Pharmacokinetic parameters were determined by standard methods using Phoenix WinNonlin 6.3 software.
Tables 3A and 3B provide the concentrations of CA77 in ICR (CD-1) mouse plasma (3A) and mouse brain (3B) following i.v. administration of 1 mg/kg CA77. Table 3C provides the brain/plasma ratio of CA77 following i.v. administration of 1 mg/kg CA77. Shaded cells indicate data not included in statistics due to aberrant value. BLQ=Below Limit of Quantitation.
Tables 5A and 5B provide the concentrations of CA77.1 in ICR (CD-1) mouse plasma (5A) and mouse brain (5B) following i.v. administration of 1 mg/kg CA77.1. Table 5C provides the brain/plasma ratio of CA77.1 following i.v. administration of 1 mg/kg CA77.1. The plasma and brain pharmacokinetic parameters for CA77.1 are provided in Table 6. *—cells contain data not present in the statistics.

Setting [3] is: T1/2, human microsomes, 3 μM compound, 0.5 mg/mL protein, 1 mM NADPH.

With `Clc1ccc2c(c1)OCC(c1ccc(-c3ccccc3)cc1)=N2` [CA39, 3-([1,1′-biphenyl]-4-yl)-7-chloro-2H-benzo[b][1,4]oxazine, reference compound], the “CMA activity (fluorescent puncta per cell, relative to untreated cells = 1)” value in series [1] (Time 5) was 2.457. For the same compound, the “CMA activity (fluorescent puncta per cell, relative to untreated cells = 1)” value in series [1] (Time 10) was determined as 2.619. In addition, the “CMA activity (fluorescent puncta per cell, relative to untreated cells = 1)” value in series [1] (Time 20) was found to be 3.587. The “CMA activity (fluorescent puncta per cell, relative to untreated cells = 1)” value in series [1] (Time 30) was found to be 4.374. Moreover, in the series “in vitro” (human, microsomes), the half-life (as a rule, the time needed for the level to fall by half in the phase considered) at 3 μM was 37.9 min; the CLint(mic) was 36.6 µL/min/mg; the “Remaining (T = 60 min)” value was determined as 30.1%; the intrinsic metabolic clearance (CLint scaled) (in general, the capacity of the preparation to metabolise the compound, expressed as a volume cleared per time) at 3 μM was 32.9 mL/min/kg.
Turning to `Clc1ccc2nc(-c3ccc(-c4ccccc4)cc3)cnc2c1` [CA39.1, 2-([1,1′-biphenyl]-4-yl)-6-chloroquinoxaline], the “CMA activity (fluorescent puncta per cell, relative to untreated cells = 1)” value in series [1] (Time 5) is given as 2.107. The “CMA activity (fluorescent puncta per cell, relative to untreated cells = 1)” value in series [1] (Time 10) is recorded as 2.233. Further, in series [1] (Time 20), the “CMA activity (fluorescent puncta per cell, relative to untreated cells = 1)” value is recorded as 2.605. In series [1] (Time 30), the “CMA activity (fluorescent puncta per cell, relative to untreated cells = 1)” value was 2.925. Besides, in the series “in vitro” (human, microsomes), the half-life at 3 μM is above 145 min, the CLint(mic) was below 9.6 µL/min/mg, the “Remaining (T = 60 min)” value is 96.0% and the intrinsic metabolic clearance (CLint scaled) at 3 μM was below 8.6 mL/min/kg.
As for `O=S(=O)(Nc1ccc(-c2cnc3cc(Cl)ccc3n2)cc1)C(F)(F)F` [CA77, reference compound], in series [2] (i.v. 1 mg/kg), the AUCINF_obs was 35.8 ng·h/mL; the AUClast stood at 35.3 ng·h/mL; the CL_obs is on record as 465 mL/min/kg; the Cmax (in general, the maximum level reached in the sampled fluid or tissue) stood at 36.2 ng/mL. In series [2] (i.v. 1 mg/kg), the MRTINF_obs worked out at 57.1 min; the T1/2 was 38.1 min; the Tmax – broadly, the time from dosing to the highest level – worked out at 4.98 min; the VSS_obs is 26.548 L/kg. The same compound came in with a F % in series [2] (p.o. 30 mg/kg vs i.v. 1 mg/kg) of 124%. Also, in series [2] (p.o. 30 mg/kg), the AUCINF_obs worked out at 1458 ng·h/mL, the AUClast was 1317 ng·h/mL, the CL_obs was determined as 343 mL/min/kg and the maximum concentration (Cmax) is reported as 278 ng/mL. Also, in series [2] (p.o. 30 mg/kg), the MRTINF_obs stood at 238 min, the T1/2 amounted to 131 min and the Tmax is 120 min.
As for `O=C(O)Cc1ccccc1Nc1c(Cl)cccc1Cl` [Diclofenac], in “in vitro” (setting [3]), the half-life at 3 μM turned out to be 15.7 min. Also, in “in vitro” (human, microsomes), the half-life at 3 μM is 105 min and the CLint scaled at 3 μM worked out at 94.4 mL/min/kg.
On to `C[C@]12CC[C@H]3[C@@H](CCC4=CC(=O)CC[C@@]43C)[C@@H]1CC[C@@H]2O` [Testosterone], for which the half-life at 3 μM in “in vitro” (setting [3]) was 57.5 min.
